Laboratory results: patent US20260327655A1, “SMALL-MOLECULE REGULATED ALTERNATIVE SPLICING” (priority 2023, published 2026)

Key:
RS2-1 and variants = experiment: Luciferase induction assay, RS2-1 and variants in HEK-293T cells; assay type: cell-based, human; conditions: 300 nM (FIG. 13A), 18 hours, FIGS. 13A, 13B
Experimental: HEK-293T cells were cultured in DMEM+10% FBS, collected after trypsinization, and dispensed into 96-well plates (cell culture-treated). Each well of the plate was seeded with 1.0×10^5 cells in 100 μL culture medium. After a 1-hour incubation in the tissue culture incubator (5% CO2, 37° C.), plasmid DNA was complexed with a transfection reagent, such as Lipofectamine 3000, and added to respective wells on the plate. Each well received 100 ng of plasmid DNA complexed with 0.15 μL Lipofectamine 3000. The plasmids utilized in the experiment encoded a CMV promoter upstream of the RS2-1 construct and variants that controlled the expression of a Firefly Luciferase gene followed by a SV40 polyadenylation signal. After a 10-minute incubation at room temperature, either DMSO vehicle or 100B at specified doses was added to the wells of the plate. Plates were then incubated for 18 hours in a tissue culture incubator. Endpoint analysis was performed by adding 100 μL of a Luciferase substrate, such as Steady-Luc Firefly Luciferase substrate, to each well of the assay plate. The liquid contents of each was transferred to a 96-well plate, mixed again for 2 min on an orbital shaker, and incubated at room temperature for 5 min. Finally, the luminescent signal from each well was measured with a plate reader. […]

[1] = test system: RS1-10 minigene (Firefly Luciferase), HEK-293T cells; experiment: Luciferase induction assay, RS1-10 with splice modulator compounds in HEK-293T cells; assay type: cell-based; conditions: Homo sapiens, 18 hours, n of 3, read-out: Mean fold-induction of luciferase (relative to vehicle control)
Experimental: (§1) HEK-293T cells were cultured in DMEM+10% FBS, collected after trypsinization, and then dispensed into 96-well plates (cell culture-treated). Each well of the plate was seeded with 1.0×10^5 cells in 100 μL culture medium. After a 1-hour incubation in a tissue culture incubator (5% CO2, 37 degrees C.), plasmid DNA was complexed with a transfection reagent, such as Lipofectamine 3000, and added to respective wells on the plate. Each well received an equivalent of 100 ng of plasmid DNA complexed with 0.15 μL Lipofectamine. Triplicate wells were used for each condition tested in the experiment. The plasmid utilized in the experiment encoded a CMV promoter upstream of the RS I-10 variant that controlled the expression of a Firefly Luciferase gene followed by a SV40 polyadenylation signal. After a 10-minute incubation at room temperature, either DMSO vehicle or specified compound at specified dose was added to the wells of the plate. Plates were then incubated for 18 hours in a tissue culture incubator. Endpoint analysis was performed by adding 100 uL Steady-Luc Firefly Luciferase substrate to each well of the assay plate. After mixing, the liquid contents of each was transferred to a 96-well plate, mixed again for 2 min on an orbital shaker, and incubated at room temperature for 5 min. Finally, the luminescent signal from each well was measured with a with PerkinElmer Envision plate reader. The results of this assay show RS1-10 responded to the majority of the splice modulator compounds used in a dose responsive manner (FIG. 9C). Bars represent mean+/−standard deviation of 3 wells normalized to vehicle controls.

[2] = test system: RS2-3 minigene (Firefly Luciferase), HEK-293T cells; experiment: Luciferase induction assay, RS2-3 with splice modulator compounds in HEK-293T cells; assay type: cell-based; conditions: Homo sapiens, 18 hours, n of 3, read-out: Mean fold-induction of luciferase (relative to vehicle control)
Experimental: as §1, with “RS2-3” for “RS I-10”, “RS2-3” for “RS1-10”, “used” for “used in a dose responsive manner”, “13C)” for “9C).”

[3] = test system: RS3-13 minigene (Firefly Luciferase), HEK-293T cells; experiment: Luciferase induction assay, RS3-13 with splice modulator compounds in HEK-293T cells; assay type: cell-based; conditions: Homo sapiens, 18 hours, n of 3, read-out: Mean fold-induction of luciferase (relative to vehicle control)
Experimental: as §1, with “RS3-13” for “the RS I-10 variant”, “RS3-13” for “RS1-10”, “used” for “used in a dose responsive manner”, “14D)” for “9C).”

Cc1cn2cc(-c3nc(=O)n4cc(N5CCNCC5)ccc4n3)cc(F)c2n1.Cl [Compound 100B, 2-(8-fluoro-2-methylimidazo[1,2-a]pyridin-6-yl)-7-(piperazin-1-yl)-4H-pyrido[1,2-a][1,3,5]triazin-4-one hydrochloride]
fold induction of luciferase compared to vehicle, constructs vs RS2-1 (RS2-1 and variants): The majority of the constructs show higher fold induction of luciferase | fold induction at 0.1 µM ([1]; RS1-10, 100 nM): 11.9 | fold induction at 1 µM ([1]; RS1-10, 1,000 nM): 57.1 | fold induction at 0.1 µM ([2]; RS2-3, 100 nM): 9.79 | fold induction at 1 µM ([2]; RS2-3, 1,000 nM): 26.4 | fold induction at 0.1 µM ([3]; RS3-13, 100 nM): 10 | fold induction at 1 µM ([3]; RS3-13, 1,000 nM): 42.4
